Where a name gives a salt, the structure may show the parent alone. Values belong to the molecule of their own block, whether it stands above or below them.
What was measured:
Assay type in all cases: biochemical
[1] = target: T1, recombinant human VAP-1 (Homo sapiens, UniProt Q16853); assay: Activity on recombinant human VAP-1, Amplex Red HRP-coupled hydrogen peroxide assay, benzylamine substrate; conditions: recombinant human VAP-1, benzylamine substrate, 30 min preincubation at 37° C.; read-out: Inhibitory Activity (IC50, nM) human VAP-1
T1 construct: purchased R&D systems
T1 sequence (Q16853 1-763): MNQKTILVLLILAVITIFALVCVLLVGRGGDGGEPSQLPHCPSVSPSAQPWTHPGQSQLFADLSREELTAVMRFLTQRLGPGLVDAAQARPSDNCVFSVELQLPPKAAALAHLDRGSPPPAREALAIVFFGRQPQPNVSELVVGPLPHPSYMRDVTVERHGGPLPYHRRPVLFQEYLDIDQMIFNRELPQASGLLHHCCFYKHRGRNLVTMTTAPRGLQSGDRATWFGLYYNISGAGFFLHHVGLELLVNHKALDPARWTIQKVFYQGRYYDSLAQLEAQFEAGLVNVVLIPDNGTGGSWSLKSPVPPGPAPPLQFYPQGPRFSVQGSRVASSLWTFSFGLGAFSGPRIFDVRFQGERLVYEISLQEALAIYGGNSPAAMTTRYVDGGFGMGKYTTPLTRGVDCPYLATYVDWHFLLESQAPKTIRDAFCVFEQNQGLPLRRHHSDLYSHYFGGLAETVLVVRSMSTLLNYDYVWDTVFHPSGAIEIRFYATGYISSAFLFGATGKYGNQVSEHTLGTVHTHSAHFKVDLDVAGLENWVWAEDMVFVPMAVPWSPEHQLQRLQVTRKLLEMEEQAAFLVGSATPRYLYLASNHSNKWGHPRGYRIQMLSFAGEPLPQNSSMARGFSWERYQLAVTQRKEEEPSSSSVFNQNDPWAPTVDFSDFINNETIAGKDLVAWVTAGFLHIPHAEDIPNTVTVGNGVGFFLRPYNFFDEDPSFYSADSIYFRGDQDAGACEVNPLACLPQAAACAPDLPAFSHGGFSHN
Method in brief: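 Enzyme in 50 mM sodium phosphate (pH 7.4) is exposed to test compound for 30 min at 37 °C. Benzylamine (1 mM) with HRP and Amplex Red then starts the reaction, and the fluorescence rate, relative to a DMSO-only control, gives IC50.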

[2] = target: T2, recombinant human MAO-A (monoamine oxidase-A) (Homo sapiens, UniProt P21397); assay: Activity on recombinant human MAO-A, Amplex Red method, 0.5 mM tyramine substrate; conditions: 0.5 mM tyramine, read-out: Inhibitory Activity (IC50, nM) MAO-A
T2 construct: purchased Sigma-Aldrich
T2 sequence (P21397 1-527): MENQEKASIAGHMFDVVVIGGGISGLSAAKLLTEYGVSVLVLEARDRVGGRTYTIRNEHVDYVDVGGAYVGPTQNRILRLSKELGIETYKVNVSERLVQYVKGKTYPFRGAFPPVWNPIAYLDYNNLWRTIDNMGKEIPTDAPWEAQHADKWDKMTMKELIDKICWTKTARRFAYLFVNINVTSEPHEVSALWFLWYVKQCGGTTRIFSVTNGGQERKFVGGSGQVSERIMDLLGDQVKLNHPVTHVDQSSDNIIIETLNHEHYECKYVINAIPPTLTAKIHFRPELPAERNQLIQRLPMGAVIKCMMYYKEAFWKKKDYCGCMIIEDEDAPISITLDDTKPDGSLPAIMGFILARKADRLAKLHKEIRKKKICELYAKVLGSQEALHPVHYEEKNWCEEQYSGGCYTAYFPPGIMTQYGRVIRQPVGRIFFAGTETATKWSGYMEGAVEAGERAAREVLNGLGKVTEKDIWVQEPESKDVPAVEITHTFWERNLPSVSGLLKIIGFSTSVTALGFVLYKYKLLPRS
Method in brief: (§1)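 Enzyme in pH 7.4 phosphate buffer; 30 min, 37° C with compound (DMSO <1%); start with 200 uM Amplex Red + 1 U/mL HRP + tyramine 0.5 mM (MAO-A) or benzylamine 1 mM (MAO-B); kinetic read ex 544/em 590, 1-2 h; % rate decrease vs DMSO control → IC50, 4-parameter fit.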

[3] = target: T3, recombinant human MAO-B (monoamine oxidase-B) (Homo sapiens, UniProt P27338); assay: Activity on recombinant human MAO-B, Amplex Red method, 1 mM benzylamine substrate; conditions: 1 mM benzylamine, read-out: Inhibitory Activity (IC50, nM) MAO-B
T3 construct: purchased Sigma-Aldrich
T3 sequence (P27338 1-520): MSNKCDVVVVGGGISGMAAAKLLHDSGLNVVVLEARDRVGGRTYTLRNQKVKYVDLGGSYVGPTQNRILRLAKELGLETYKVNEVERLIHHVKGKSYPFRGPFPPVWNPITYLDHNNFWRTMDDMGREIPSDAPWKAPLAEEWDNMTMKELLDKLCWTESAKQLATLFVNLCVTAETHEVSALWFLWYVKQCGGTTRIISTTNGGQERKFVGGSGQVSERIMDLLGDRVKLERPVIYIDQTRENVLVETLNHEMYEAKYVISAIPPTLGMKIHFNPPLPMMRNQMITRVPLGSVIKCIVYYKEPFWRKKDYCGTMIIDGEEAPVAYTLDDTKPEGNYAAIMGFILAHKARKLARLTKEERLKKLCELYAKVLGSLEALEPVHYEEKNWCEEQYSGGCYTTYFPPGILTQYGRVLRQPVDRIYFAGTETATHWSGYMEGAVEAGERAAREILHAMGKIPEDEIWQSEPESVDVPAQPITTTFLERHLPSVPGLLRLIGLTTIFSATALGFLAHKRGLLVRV
Method in brief: as §1

[4] = target: T4, recombinant human DAO (diamine oxidase) (Homo sapiens, UniProt P19801); assay: Activity on recombinant human DAO, Amplex Red method, 1 mM putrescine substrate; conditions: recombinant human DAO, 1 mM putrescine; * = between 10 and 100 nM, ** = between 300 and 1000 nM; read-out: Inhibitory Activity (IC50, nM) DAO
T4 construct: purchased R&D systems
T4 sequence (P19801 20-751): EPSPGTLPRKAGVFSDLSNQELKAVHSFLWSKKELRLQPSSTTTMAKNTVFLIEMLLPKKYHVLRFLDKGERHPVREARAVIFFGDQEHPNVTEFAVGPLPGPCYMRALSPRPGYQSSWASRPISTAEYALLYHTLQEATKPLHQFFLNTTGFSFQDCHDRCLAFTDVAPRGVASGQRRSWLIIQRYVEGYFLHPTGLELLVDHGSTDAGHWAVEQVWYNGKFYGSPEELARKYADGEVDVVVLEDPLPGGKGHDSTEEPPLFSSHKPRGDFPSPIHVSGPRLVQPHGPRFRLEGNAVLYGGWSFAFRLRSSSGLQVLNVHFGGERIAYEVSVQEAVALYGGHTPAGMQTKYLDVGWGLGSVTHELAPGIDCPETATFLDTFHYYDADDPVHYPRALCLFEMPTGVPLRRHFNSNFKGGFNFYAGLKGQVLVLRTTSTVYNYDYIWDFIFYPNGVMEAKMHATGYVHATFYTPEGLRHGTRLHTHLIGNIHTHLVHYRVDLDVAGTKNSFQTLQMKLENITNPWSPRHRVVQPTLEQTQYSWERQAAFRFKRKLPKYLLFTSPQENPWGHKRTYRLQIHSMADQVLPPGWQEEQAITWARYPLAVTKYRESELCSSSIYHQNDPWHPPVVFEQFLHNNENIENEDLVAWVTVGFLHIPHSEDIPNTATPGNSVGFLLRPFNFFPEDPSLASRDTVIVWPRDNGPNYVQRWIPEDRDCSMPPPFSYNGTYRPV
Method in brief: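 Inhibition of recombinant human DAO (diamine oxidase, R&D systems) was assessed with the Amplex Red Hydrogen Peroxide Assay Kit. Hydrogen peroxide produced from 1 mM putrescine was detected through an HRP-coupled reaction that converts Amplex Red into fluorescent resorufin, read at 544 nm excitation and 590 nm emission. IC50 values came from four-parameter logistic fits in GraphPad Prism.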

SMILES: Cc1cc(-c2cccc(-n3cnn(C/C(=C/F)CN)c3=O)c2)ccc1N1CCOCC1 [Example 77, 2-[(2E)-2-(aminomethyl)-3-fluoroprop-2-en-1-yl]-4-[3′-methyl-4′-(morpholin-4-yl)biphenyl-3-yl]-2,4-dihydro-3H-1,2,4-triazol-3-one hydrochloride]
IC50 [1]: 0.8 nM
IC50 [2]: > 100000 nM
IC50 [3]: > 10000 nM
IC50 [4]: 18 nM

SMILES: NC/C(=C\F)Cn1ncn(-c2cccc(-c3ccc(C(=O)N4CCOCC4)cc3)c2)c1=O [Example 78, 2-[(2E)-2-(aminomethyl)-3-fluoroprop-2-en-1-yl]-4-[4′-(morpholin-4-ylcarbonyl)biphenyl-3-yl]-2,4-dihydro-3H-1,2,4-triazol-3-one hydrochloride]
IC50 [1]: 1 nM
IC50 [2]: > 100000 nM
IC50 [3]: > 10000 nM
IC50 [4]: 0.2 nM

SMILES: CC(=O)Nc1cc(-c2cccc(-n3cnn(C/C(=C\F)CN)c3=O)c2)ccn1 [Example 80, N-[4-(3-{1-[(2Z)-2-(aminomethyl)-3-fluoroprop-2-en-1-yl]-5-oxo-1,5-dihydro-4H-1,2,4-triazol-4-yl}phenyl)pyridin-2-yl]acetamide hydrochloride]
IC50 [1]: 1.1 nM
IC50 [2]: > 100000 nM
IC50 [3]: > 10000 nM
IC50 [4]: 12 nM

SMILES: NC/C(=C\F)Cn1ncn(-c2cccc(-c3cccnc3)c2)c1=O [Example 82, 2-[(2E)-2-(aminomethyl)-3-fluoroprop-2-en-1-yl]-4-[3-(pyridin-3-yl)phenyl]-2,4-dihydro-3H-1,2,4-triazol-3-one hydrochloride]
IC50 [1]: 0.8 nM
IC50 [2]: > 100000 nM
IC50 [3]: 18000 nM
IC50 [4]: < 100 nM

SMILES: COc1ccc(-c2cccc(-n3cnn(C/C(=C/F)CN)c3=O)c2)cn1 [Example 83, 2-[(2E)-2-(aminomethyl)-3-fluoroprop-2-en-1-yl]-4-[3-(6-methoxypyridin-3-yl)phenyl]-2,4-dihydro-3H-1,2,4-triazol-3-one hydrochloride]
IC50 [1]: 0.88 nM
IC50 [2]: > 100000 nM
IC50 [3]: 2460 nM
IC50 [4]: < 30 nM

SMILES: NC/C(=C\F)Cn1ncn(-c2cccc(-c3ccc(C(F)(F)F)nc3)c2)c1=O [Example 84, 2-[(2E)-2-(aminomethyl)-3-fluoroprop-2-en-1-yl]-4-{3-[6-(trifluoromethyl)pyridin-3-yl]phenyl}-2,4-dihydro-3H-1,2,4-triazol-3-one hydrochloride]
IC50 [1]: 0.78 nM
IC50 [2]: > 100000 nM
IC50 [3]: 3000 nM
IC50 [4]: < 10 nM

SMILES: COc1ncc(-c2cccc(-n3cnn(C/C(=C/F)CN)c3=O)c2)cc1C(F)(F)F [Example 87, 2-[(2E)-2-(aminomethyl)-3-fluoroprop-2-en-1-yl]-4-{3-[6-methoxy-5-(trifluoromethyl)pyridin-3-yl]phenyl}-2,4-dihydro-3H-1,2,4-triazol-3-one hydrochloride]
IC50 [1]: 1 nM
IC50 [2]: > 100000 nM
IC50 [3]: 22 nM
IC50 [4]: < 100 nM

SMILES: NC/C(=C\F)Cn1ncn(-c2cccc(-c3cnc(O)c(C(F)(F)F)c3)c2)c1=O [Example 88, 2-[(2E)-2-(aminomethyl)-3-fluoroprop-2-en-1-yl]-4-{3-[6-hydroxy-5-(trifluoromethyl)pyridin-3-yl]phenyl}-2,4-dihydro-3H-1,2,4-triazol-3-one hydrochloride]
IC50 [1]: 1.1 nM
IC50 [2]: > 100000 nM
IC50 [3]: 9600 nM
IC50 [4]: < 10 nM

Now those with a lower IC50 [1], led by results:

IC50 [1]: 0.62 nM
IC50 [2]: > 100000 nM
IC50 [3]: 1800 nM
IC50 [4]: < 10 nM
SMILES: NC/C(=C\F)Cn1ncn(-c2cccc(-c3ccc(Cl)nc3)c2)c1=O [Example 85, 2-[(2E)-2-(aminomethyl)-3-fluoroprop-2-en-1-yl]-4-[3-(6-chloropyridin-3-yl)phenyl]-2,4-dihydro-3H-1,2,4-triazol-3-one hydrochloride]

IC50 [1]: 0.62 nM
IC50 [2]: > 100000 nM
IC50 [3]: 1230 nM
IC50 [4]: < 100 nM
SMILES: NC/C(=C\F)Cn1ncn(-c2cccc(-c3ccc(N4CCOCC4)nc3)c2)c1=O [Example 86, 2-[(2E)-2-(aminomethyl)-3-fluoroprop-2-en-1-yl]-4-{3-[6-(morpholin-4-yl)pyridin-3-yl]phenyl}-2,4-dihydro-3H-1,2,4-triazol-3-one hydrochloride]

IC50 [1]: 0.54 nM
IC50 [2]: > 100000 nM
IC50 [3]: 7520 nM
IC50 [4]: < 100 nM
SMILES: CC(=O)Nc1cc(-c2cccc(-n3cnn(C/C(=C/F)CN)c3=O)c2)ccn1 [Example 81, N-[4-(3-{1-[(2E)-2-(aminomethyl)-3-fluoroprop-2-en-1-yl]-5-oxo-1,5-dihydro-4H-1,2,4-triazol-4-yl}phenyl)pyridin-2-yl]acetamide hydrochloride]

IC50 [1]: 0.47 nM
IC50 [2]: > 100000 nM
IC50 [3]: 7900 nM
IC50 [4]: 2.2 nM
SMILES: COc1cc(-c2cccc(-n3cnn(C/C(=C/F)CN)c3=O)c2)ccn1 [Example 79, 2-[(2E)-2-(aminomethyl)-3-fluoroprop-2-en-1-yl]-4-[3-(2-methoxypyridin-4-yl)phenyl]-2,4-dihydro-3H-1,2,4-triazol-3-one hydrochloride]

Reference: patent US11492335B2, “Aryl or heteroaryl triazolone derivatives or salts thereof, or pharmaceutical compositions comprising the same” (YUHAN CORPORATION, priority 2018, dated 2022)
